Test results as given in patent US20050187208A1 (priority 2004, published 2005).
Where a name gives a salt, the structure may show the parent alone.

Key:
[1] = biological target: T1, transfected human CB1 receptor (Homo sapiens, UniProt P21554); assay: In-vitro determination of affinity to CB1 receptor, radioligand [^3H]-CP55940; type: binding; settings: read-out: CB1 Receptor % Inhibition 10^−6 M
T1 construct: purchased Receptor Biology, Inc
Description: I. In-vitro Determination of Affinity to CB1/CB2-Rezeptors
The in-vitro determination of the affinity of the inventive substituted azetidine compounds to CB1/CB2-Receptors is carried out as described in the publication of Ruth A. Ross, Heather C. Brockie et al., “Agonist-inverse agonist characterization at CB1 and CB2 cannabinoid receptors of L-759633, L759656 and AM630”, British Journal of Pharmacology, 126, 665-672, (1999). The respective parts of the descriptions are hereby incorporated by reference and form part of the present disclosure. The transfected human CB1 and CB2 receptor are obtained from Receptor Biology, Inc. The radioligand used for both receptors is [^3H]-CP55940.
The affinity of the inventive substituted azetidine compounds to CB1/CB2 receptors is determined as described above.

cannabinoid receptors [2] = assay: Mouse tetrad model, antagonistic effect against Win 55212-2; type: in vivo; parameters: unit not given here; settings: 5 mg/kg i.v. prior to Win 55212-2 1.25 mg/kg i.v.; male NMRI mice
Source text: (§1) Substances with affinity for cannabinoid receptors are known to produce a wide range of pharmacological effects. It is also known that intravenous administration of a substance with affinity for cannabinoid receptors in mice produces analgesia, hypothermia, sedation and catalepsy. Individually, none of these effects can be considered as proof that a tested substance has affinity for cannabinoid-receptors, since all of these effects are common for various classes of centrally active agents. However, substances, which show all of these effects, i.e. substances that are active in this so-called tetrad model are considered to have affinity for the cannabinoid receptors. It has further been shown that cannabinoid receptor antagonists are higly effective in blocking the effects of a cannabinoid agonist in the mouse tetrad model.
(§2) The tetrad model is described, for example, in the publication of A. C. Howlett et al, International Union of Pharmacology XXVII. Classification of Cannabinoid Receptors, Pharmacol Rev 54, 161-202, 2002 and David R. Compton et al., “In-vivo Characterization of a Specific Cannabinoid Receptor Antagonist (SR141716A): Inhibition of Tetrahydrocannbinol-induced Responses and Apparent Agonist Activity”, J. Pharmacol. Exp. Ther. 277, 2, 586-594, 1996. The corresponding parts of the description are hereby incorporated by reference.
(§3) Male NMRI mice with a weight of 20-30 g (Harlan, Barcelona, Spain) are used in all of the following experiments.
(§4) Before testing in the behavioral procedures given below, mice are acclimatized to the experimental setting. Pre-Treatment control values are determined for analgesia hot plate latency (in seconds), rectal temperature, sedation and catalepsy.
(§5) In order to determine the agonistic activty of the substance to be tested, the mice are injected intravenously with the substance to be tested or the vehicle alone. 15 minutes after injection, latency in hot plate analgesia is measured. Rectal temperature, sedation and catalepsy are measured 20 minutes after injection.
In order to determine the antagonistic activity the identical procedure is used as for the determination of the agonistic effects, but with the difference that the substance to be evaluated for its antagonistic activity is injectected 5 minutes before the intravenous injection of 1.25 mg/kg Win-55,212 a known cannabinoid-receptor agonist.
(§6) The hot plate analgesia is determined according to the method described in Woolfe D. et al. “The evaluation of analgesic action of pethidine hydrochloride (Demerol)”, J. Pharmacol. Exp. Ther. 80, 300-307, 1944. The respective description is hereby incorporated by reference and forms part of the present disclosure.
(§7) The mice are placed on a hot plate (Harvard Analgesimeter) at 55±0.5° C. until they show a painful sensation by licking their paws or jumping and the time for these sensations to occur is recorded. This reading is considered the basal value (B). The maximum time limit the mice are allowed to remain on the hot plate in absence of any painful response is 40 seconds in order to prevent skin damage. This period is called the cut-off time (PC).
(§8) Fifteen minuts after the administration of the substance to be tested, the mice are again placed on the hot plate and the afore described procedure is repeated. This period is called the post-treatment reading (PT).
(§9) The degree of analgesia is calculated from the formula: % MPE of Analgesia=(PT−B)/(PC−B)×100 • MPE Maximum possible effect. Determination of Sedation and Ataxia
(§10) Sedation and ataxia is determined according to the method described in Desmet L. K. C. et al. “Anticonvulsive properties of.Cinarizine and Flunarizine in Rats and Mice”, Arzneim. -Forsch. (Frug Res) 25, 9, 1975. The respective description is hereby incorporated by reference and forms part of the present disclosure.
The chosen scoring system is • 0: no ataxia; • 1: doubful; • 2: obvious calmness and quiet; • 3 pronounced ataxia; prior to as well as after treatment. […]

cannabinoid receptors [3] = assay: Mouse tetrad model, agonistic effect (hot plate, hypothermia, catalepsy, sedation); type: in vivo; parameters: key to Agonistic effect A: Hot-Plate test: % MPE = (PT−B)/(PC−B)×100; key to Agonistic effect D: Sedation: % sedation = mean score (0-3)/3×100; Agonistic effect B: Hypothermia: unit not given here; settings: 5 mg/kg i.v., male NMRI mice; for Agonistic effect A: Hot-Plate test: 15 minutes after injection; for Agonistic effect B: Hypothermia / Agonistic effect C: Catalepsy / Agonistic effect D: Sedation: 20 minutes after injection
Source text: as §1, §2, §3, §4, §5, §6, §7, §8, §9, §10
The chosen scoring system is • 0: no ataxia; • 1: doubful; • 2: obvious calmness and quiet; • 3 pronounced ataxia; prior to as well as after treatment.
The percentage of sedation is determined according to the formula: % of sedation=arithmetic mean/3×100 Hypothermia: […]

T1 sequence (P21554 whole entry): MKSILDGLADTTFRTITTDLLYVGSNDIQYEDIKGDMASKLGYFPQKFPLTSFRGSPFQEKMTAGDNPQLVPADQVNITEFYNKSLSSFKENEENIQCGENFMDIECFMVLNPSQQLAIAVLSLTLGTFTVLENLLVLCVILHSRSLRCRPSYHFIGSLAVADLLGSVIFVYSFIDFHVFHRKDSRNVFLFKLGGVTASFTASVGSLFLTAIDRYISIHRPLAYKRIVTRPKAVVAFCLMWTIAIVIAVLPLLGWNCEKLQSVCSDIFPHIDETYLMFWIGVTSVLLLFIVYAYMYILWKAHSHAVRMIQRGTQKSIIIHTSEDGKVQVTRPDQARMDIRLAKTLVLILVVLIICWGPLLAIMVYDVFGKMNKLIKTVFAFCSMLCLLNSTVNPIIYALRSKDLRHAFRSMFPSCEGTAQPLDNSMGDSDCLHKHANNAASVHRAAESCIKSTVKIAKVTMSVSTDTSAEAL

melting point [°C]	SMILES	also measured
173 to 175	Cc1nn(C)c(C)c1S(=O)(=O)N[C@H]1CN(C(c2ccc(Cl)cc2)c2ccc(Cl)cc2)[C@@H]1C	–
60 to 64	C[C@@H]1[C@@H](N(S(=O)(=O)c2ccc(F)cc2)S(=O)(=O)c2ccc(F)cc2)CN1C(c1ccc(Cl)cc1)c1ccc(Cl)cc1	–
65 to 68	C[C@H]1[C@H](NC(=O)C2CCCCC2)CN1C(c1ccc(Cl)cc1)c1ccc(Cl)cc1	–
57 to 60	C[C@H]1[C@H](NC(=O)c2cc(F)cc(F)c2)CN1C(c1ccc(Cl)cc1)c1ccc(Cl)cc1	–
154 to 157	C[C@H]1C(NS(=O)(=O)c2ccc(F)cc2)CN1C(c1ccc(Cl)cc1)c1ccc(Cl)cc1 (mixture of isomers)	–
145 to 148	C[C@@H]1[C@@H](NS(=O)(=O)c2ccc(-c3ccccc3)cc2)CN1C(c1ccc(Cl)cc1)c1ccc(Cl)cc1 (relative stereo)	–
164 to 169	C[C@@H]1[C@@H](NS(=O)(=O)c2c(Cl)nc3sccn23)CN1C(c1ccc(Cl)cc1)c1ccc(Cl)cc1 (relative stereo)	–
–	C[C@@H]1[C@@H](NS(=O)(=O)c2cccc3nsnc23)CN1C(c1ccc(Cl)cc1)c1ccc(Cl)cc1 (relative stereo) [Example 15, 2,1,3-Benzothiadiazole-4-sulfonic acid {trans-1-[bis-(4-chloro-phenyl)-methyl]-2-methyl-azetidin-3-yl}-amide]	inhibition at 1 µM [1]: 66%; Agonistic effect A: Hot-Plate test (cannabinoid receptors [3]): 14; Agonistic effect B: Hypothermia (cannabinoid receptors [3]): 0; Agonistic effect C: Catalepsy (cannabinoid receptors [3]): 0; Agonistic effect D: Sedation (cannabinoid receptors [3]): 0; Antagonistic Effect A: Hot-Plate test (cannabinoid receptors [2]): 72; Antagonistic Effect B: Hypothermia (cannabinoid receptors [2]): 100; Antagonistic Effect C: Catalepsy (cannabinoid receptors [2]): 57; Antagonistic Effect D: Sedation (cannabinoid receptors [2]): 71
156 to 160	C[C@@H]1[C@@H](NS(=O)(=O)c2ccc3ccccc3c2)CN1C(c1ccc(Cl)cc1)c1ccc(Cl)cc1 (stereo in doubt)	–
177 to 180	CC(=O)c1ccc(S(=O)(=O)N[C@H]2CN(C(c3ccc(Cl)cc3)c3ccc(Cl)cc3)[C@@H]2C)cc1 (stereo in doubt)	–
115 to 119	C[C@@H]1[C@@H](NS(=O)(=O)c2ccc(Oc3ccc(Br)cc3)cc2)CN1C(c1ccc(Cl)cc1)c1ccc(Cl)cc1 (stereo in doubt)	–
105 to 108	Cc1c(S(=O)(=O)N[C@H]2CN(C(c3ccc(Cl)cc3)c3ccc(Cl)cc3)[C@@H]2C)sc2ccc(Cl)cc12 (stereo in doubt)	–
123 to 128	C[C@@H]1[C@@H](NS(=O)(=O)CCc2cccc3ccccc23)CN1C(c1ccc(Cl)cc1)c1ccc(Cl)cc1 (stereo in doubt)	–
171 to 174	C[C@@H]1[C@@H](NS(=O)(=O)c2cccc3ccccc23)CN1C(c1ccc(Cl)cc1)c1ccc(Cl)cc1 (stereo in doubt)	–
160 to 162	C[C@@H]1[C@@H](NS(=O)(=O)c2ccc(Oc3ccccc3)cc2)CN1C(c1ccc(Cl)cc1)c1ccc(Cl)cc1 (stereo in doubt)	–
173 to 176	Cc1c(S(=O)(=O)N[C@H]2CN(C(c3ccc(Cl)cc3)c3ccc(Cl)cc3)[C@@H]2C)cnn1-c1ccccc1 (stereo in doubt)	–
182 to 186	C[C@@H]1C(N(C)S(=O)(=O)c2ccc(F)cc2)CN1C(c1ccc(Cl)cc1)c1ccc(Cl)cc1 (stereo in doubt)	–
75 to 78	C[C@@H]1[C@@H](N(Cc2ccc(F)cc2)S(=O)(=O)c2ccc(F)cc2)CN1C(c1ccc(Cl)cc1)c1ccc(Cl)cc1 (stereo in doubt)	–
91 to 97	CCCN([C@H]1CN(C(c2ccc(Cl)cc2)c2ccc(Cl)cc2)[C@@H]1C)S(=O)(=O)c1ccc(F)cc1 (stereo in doubt)	–
134 to 136	C[C@H]1[C@H](N)CN1C(c1ccc(Cl)cc1)c1ccc(Cl)cc1 (stereo in doubt)	–
122 to 127	C[C@H]1[C@H](NC(=O)C(F)(F)F)CN1C(c1ccc(Cl)cc1)c1ccc(Cl)cc1 (stereo in doubt) (as salt: TFA)	–

SMILES	melting point [°C]	also measured
C[C@@H]1[C@@H](OS(=O)(=O)c2ccc(F)cc2)CN1C(c1ccc(Cl)cc1)c1ccc(Cl)cc1 (relative stereo) [Example 1, 4-Fluoro-benzenesulfonic acid-trans-1-[bis-(4-chloro-phenyl)-methyl]-2-methyl-azetidin-3-yl ester]	105 to 107	inhibition at 1 µM [1]: 60%; Antagonistic Effect A: Hot-Plate test (cannabinoid receptors [2]): 46; Antagonistic Effect C: Catalepsy (cannabinoid receptors [2]): 47
C[C@@H]1[C@@H](NS(=O)(=O)c2ccc(S(C)(=O)=O)cc2)CN1C(c1ccc(Cl)cc1)c1ccc(Cl)cc1 (relative stereo) [Example 14, N-{trans-1-[Bis-(4chloro-phenyl)methyl]-2-methyl-azetidin-3-yl}-4-methylsulfonyl-benzenesulfonamide]	202 to 204	inhibition at 1 µM [1]: 82%; Agonistic effect A: Hot-Plate test (cannabinoid receptors [3]): 16; Agonistic effect B: Hypothermia (cannabinoid receptors [3]): 0; Agonistic effect C: Catalepsy (cannabinoid receptors [3]): 0; Agonistic effect D: Sedation (cannabinoid receptors [3]): 0; Antagonistic Effect A: Hot-Plate test (cannabinoid receptors [2]): 12; Antagonistic Effect B: Hypothermia (cannabinoid receptors [2]): 71; Antagonistic Effect C: Catalepsy (cannabinoid receptors [2]): 14; Antagonistic Effect D: Sedation (cannabinoid receptors [2]): 9
C[C@@H]1[C@@H](NS(=O)(=O)c2cc(Cl)cc(Cl)c2)CN1C(c1ccc(Cl)cc1)c1ccc(Cl)cc1 (relative stereo) [Example 18, N-{trans-1-[Bis-(4-chloro-phenyl)-methyl]-2-methyl-azetidin-3-yl}-3,5-dichloro-benzenesulfonamide]	144 to 146	inhibition at 1 µM [1]: 95%
C[C@@H]1[C@@H](NS(=O)(=O)c2csc3ccccc23)CN1C(c1ccc(Cl)cc1)c1ccc(Cl)cc1 (relative stereo) [Example 25, Benzo[b]thiophene-3-sulfonic acid {trans-1-[bis-(4-chloro-phenyl)-methyl]-2-methyl-azetidin-3-yl}amide]	192 to 197	inhibition at 1 µM [1]: 87%
C[C@@H]1[C@@H](NS(=O)(=O)c2ccc(F)cc2)CN1C(c1ccc(Cl)cc1)c1ccc(Cl)cc1 [Example 33, N-{(2R,3S)-1-[Bis-(4-chloro-phenyl)-methyl]-2-methyl-azetidin-3-yl}-4-fluoro-benzenesulfonamide]	154 to 158	inhibition at 1 µM [1]: 71%
